In brackets after ≈: the same amount, converted by molar mass.
Legend:
[1] = tested on: vancomycin-susceptible enterococci; assay: broth micro-dilution, mean geometric MIC; format: cell-based, Enterococcus faecium and Enterococcus faecalis; details: enterococci, 24-hour incubation
[2] = tested on: Staphylococcus epidermidis 270; assay: broth micro-dilution MIC; format: cell-based
Method: (§1) The formula I compounds have in vitro and in vivo activity against Gram-positive pathogenic bacteria. The MIC's were determined using a standard broth micro-dilution assay.

[3] = tested on: Staphylococcus haemolyticus 105; assay: broth micro-dilution MIC; format: cell-based
Method: as §1

Entercoccus faecium 2041 = assay: broth micro-dilution MIC; format: cell-based; details: Entercoccus faecium 2041
Method: as §1

[4] = tested on: Staphylococcus haemolyticus 415; assay: broth micro-dilution MIC; format: cell-based
Method: as §1

[5] = tested on: Enterococcus gallinarum 245; assay: broth micro-dilution MIC; format: cell-based; details: Enterococcus gallinarum 245
Method: as §1

Entercoccus faecium 180 = assay: broth micro-dilution MIC; format: cell-based; details: Entercoccus faecium 180
Method: as §1

[6] = tested on: vancomycin-resistant enterococci; assay: broth micro-dilution, mean geometric MIC; format: cell-based, Enterococcus faecium and Enterococcus faecalis; details: enterococci, 24-hour incubation
[7] = tested on: Entercoccus faecium 180-1; assay: broth micro-dilution MIC; format: cell-based
Method: (§2) The MIC's were determined using a standard broth micro-dilution assay.

[8] = tested on: Staphylococcus aureus 446; assay: broth micro-dilution MIC; format: cell-based
Method: as §2

[9] = tested on: Staphylococcus aureus 489; assay: broth micro-dilution MIC; format: cell-based
Method: as §2

[10] = tested on: Staphylococcus aureus SA1199A; assay: broth micro-dilution MIC; format: cell-based
Method: as §2

[11] = tested on: Staphylococcus aureus X778; assay: broth micro-dilution MIC; format: cell-based
Method: as §2

[12] = tested on: Staphylococcus aureus 491; assay: broth micro-dilution MIC; format: cell-based
Method: as §2

Entercoccus faecium 276 = assay: broth micro-dilution MIC; format: cell-based
Method: as §2

[13] = tested on: Staphylococcus aureus X400; assay: broth micro-dilution MIC; format: cell-based
Method: as §2

[14] = tested on: Staphylococcus aureus 447; assay: broth micro-dilution MIC; format: cell-based
Method: as §2

[15] = tested on: Staphylococcus aureus S13E; format: cell-based
Method: as §2

[16] = tested on: Streptococcus pneumoniae P1; assay: broth micro-dilution MIC; format: cell-based
Method: as §1

[17] = tested on: Streptococcus pyogenes C203; assay: broth micro-dilution MIC; format: cell-based
Method: as §2

[18] = tested on: Staphylococcus aureus SA1199B; format: cell-based
Method: as §2

| SMILES | mean geometric MIC, Vancomycin Sensitive Strains [1] [µg/mL] | MIC [2] [µg/mL] | MIC [3] [µg/mL] | MIC (Entercoccus faecium 2041) [µg/mL] | MIC [4] [µg/mL] | MIC [5] [µg/mL] | MIC (Entercoccus faecium 180) [µg/mL] | mean geometric MIC, Vancomycin Resistant Strains [6] [µg/mL] | MIC [7] [µg/mL] | MIC [8] [µg/mL] | MIC [9] [µg/mL] | MIC [10] [µg/mL] | MIC [11] [µg/mL] | MIC [12] [µg/mL] | MIC (Entercoccus faecium 276) [µg/mL] | MIC [13] [µg/mL] | MIC [14] [µg/mL] | MIC [15] [µg/mL] | MIC [16] [µg/mL] | MIC [17] [µg/mL] | other results |
| --- | --- | --- | --- | --- | --- | --- | --- | --- | --- | --- | --- | --- | --- | --- | --- | --- | --- | --- | --- | --- | --- |
| CNC(CC(C)C)C(=O)NC1C(=O)NC(CC(N)=O)C(=O)NC2C(=O)NC3C(=O)NC(C(=O)NC(C(=O)O)c4cc(O)cc(O)c4-c4cc3ccc4O)C(OC3CC(C)(N)C(O)C(C)O3)c3ccc(c(Cl)c3)Oc3cc2cc(c3OC2OC(CO)C(O)C(O)C2OC2CC(C)(NCc3cnc4ccccc4c3)C(O)C(C)O2)Oc2ccc(cc2Cl)C1O (stereo not shown) [Compound 28] | 0.71 | 1 (≈ 0.577 µM) | 4 (≈ 2.31 µM) | 0.25 (≈ 0.144 µM) | 8 (≈ 4.61 µM) | 0.25 (≈ 0.144 µM) | 1 (≈ 0.577 µM) | 4.7 | ≤ 0.06 | 0.25 (≈ 0.144 µM) | ≤ 0.06 | ≤ 0.06 | ≤ 0.06 | 0.25 (≈ 0.144 µM) | ≤ 0.06 | ≤ 0.06 | 1 (≈ 0.577 µM) | ≤ 0.06 | – | – | – |
| CNC(CC(C)C)C(=O)NC1C(=O)NC(CC(N)=O)C(=O)NC2C(=O)NC3C(=O)NC(C(=O)NC(C(=O)O)c4cc(O)cc(O)c4-c4cc3ccc4O)C(OC3CC(C)(N)C(O)C(C)O3)c3ccc(c(Cl)c3)Oc3cc2cc(c3OC2OC(CO)C(O)C(O)C2OC2CC(C)(NCc3ccc(-c4ccccc4[N+](=O)[O-])cc3)C(O)C(C)O2)Oc2ccc(cc2Cl)C1O (stereo not shown) [Compound 102] | 0.13 | 1 (≈ 0.554 µM) | 2 (≈ 1.11 µM) | ≤ 0.06 | 4 (≈ 2.22 µM) | 4 (≈ 2.22 µM) | – | 2.0 | ≤ 0.06 | 1 (≈ 0.554 µM) | ≤ 0.06 | ≤ 0.06 | ≤ 0.06 | 1 (≈ 0.554 µM) | 0.25 (≈ 0.139 µM) | ≤ 0.06 | 1 (≈ 0.554 µM) | 1 (≈ 0.554 µM) | ≤ 0.06 | ≤ 0.06 | MIC [18]: 1 µg/mL (≈ 0.554 µM) |
| CNC(CC(C)C)C(=O)NC1C(=O)NC(CC(N)=O)C(=O)NC2C(=O)NC3C(=O)NC(C(=O)NC(C(=O)O)c4cc(O)cc(O)c4-c4cc3ccc4O)C(OC3CC(C)(N)C(O)C(C)O3)c3ccc(c(Cl)c3)Oc3cc2cc(c3OC2OC(CO)C(O)C(O)C2OC2CC(C)(NCc3ccc(OS(C)(=O)=O)cc3)C(O)C(C)O2)Oc2ccc(cc2Cl)C1O (stereo not shown) [Compound 149] | 0.66 | 1 (≈ 0.563 µM) | 4 (≈ 2.25 µM) | ≤ 0.06 | 16 (≈ 9.01 µM) | 16 (≈ 9.01 µM) | 1 (≈ 0.563 µM) | 45 | ≤ 0.06 | 0.5 (≈ 0.281 µM) | ≤ 0.06 | ≤ 0.06 | 0.5 (≈ 0.281 µM) | 0.5 (≈ 0.281 µM) | ≤ 0.06 | ≤ 0.06 | 4 (≈ 2.25 µM) | – | ≤ 0.06 | ≤ 0.06 | MIC [18]: 1 µg/mL (≈ 0.563 µM) |
| CNC(CC(C)C)C(=O)NC1C(=O)NC(CC(N)=O)C(=O)NC2C(=O)NC3C(=O)NC(C(=O)NC(C(=O)O)c4cc(O)cc(O)c4-c4cc3ccc4O)C(OC3CC(C)(N)C(O)C(C)O3)c3ccc(c(Cl)c3)Oc3cc2cc(c3OC2OC(CO)C(O)C(O)C2OC2CC(C)(NCc3ccc(OCC(O)CO)cc3)C(O)C(C)O2)Oc2ccc(cc2Cl)C1O (stereo not shown) [Compound 177] | – | 1 (≈ 0.564 µM) | 4 (≈ 2.26 µM) | – | 16 (≈ 9.03 µM) | 16 (≈ 9.03 µM) | 4 (≈ 2.26 µM) | – | ≤ 0.06 | 0.5 (≈ 0.282 µM) | ≤ 0.06 | 0.5 (≈ 0.282 µM) | 2 (≈ 1.13 µM) | 0.5 (≈ 0.282 µM) | – | ≤ 0.06 | 4 (≈ 2.26 µM) | – | 8 (≈ 4.51 µM) | 16 (≈ 9.03 µM) | – |
